Reference: PubChem BioAssay (NCI)
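These data come from cells grown in 96-well plates and exposed to compound for 48 hours at five concentrations. The concentration for full growth arrest is given as TGI.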

Key:
Test in all cases: NCI anticancer screen, dose series, 48 h
[1] = test system: 786-0 renal
[2] = test system: A498 renal
[3] = test system: A549 NSCLC
[4] = test system: ACHN renal
[5] = test system: BT-549 breast
[6] = test system: CAKI-1 renal
[7] = test system: CCRF-CEM leukemia
[8] = test system: COLO 205 colon
[9] = test system: DU-145 prostate
[10] = test system: EKVX NSCLC
[11] = test system: HCT-116 colon
[12] = test system: HCT-15 colon
[13] = test system: HL-60(TB) leukemia
[14] = test system: HOP-92 NSCLC
[15] = test system: HS 578T breast
[16] = test system: HT29 colon
[17] = test system: IGROV1 ovarian
[18] = test system: KM12 colon
[19] = test system: LOX IMVI melanoma
[20] = test system: M14 melanoma
[21] = test system: MCF7 breast
[22] = test system: MDA-MB-231 breast
[23] = test system: MDA-MB-435
[24] = test system: MDA-N
[25] = test system: MOLT-4 leukemia
[26] = test system: NCI-H226 lung
[27] = test system: NCI-H23 lung
[28] = test system: NCI-H460 lung
[29] = test system: NCI-H522 lung
[30] = test system: NCI/ADR-RES ovarian
[31] = test system: OVCAR-3 ovarian
[32] = test system: OVCAR-4 ovarian
[33] = test system: OVCAR-5 ovarian
[34] = test system: OVCAR-8 ovarian
[35] = test system: PC-3 prostate
[36] = test system: RPMI-8226 leukemia
[37] = test system: RXF 393 renal
[38] = test system: SF-268 CNS
[39] = test system: SF-295 CNS
[40] = test system: SF-539 CNS
[41] = test system: SK-MEL-2 melanoma
[42] = test system: SK-MEL-5 melanoma
[43] = test system: SK-OV-3 ovarian
[44] = test system: SN12C renal
[45] = test system: SNB-19 CNS
[46] = test system: SNB-75 CNS
[47] = test system: SR leukemia
[48] = test system: SW-620 colon
[49] = test system: T-47D breast
[50] = test system: TK-10 renal
[51] = test system: U251 CNS
[52] = test system: UACC-257 melanoma
[53] = test system: UACC-62 melanoma
[54] = test system: UO-31 renal
[55] = test system: HCC-2998 colon
[56] = test system: HOP-62 NSCLC
[57] = test system: K-562 leukemia
[58] = test system: MALME-3M melanoma
[59] = test system: SK-MEL-28 melanoma

SMILES: Nc1ncc2c(n1)-c1ccccc1OC2NC1CC1 (stereo not given)
- TGI [1]: > 100 µM
- TGI [2]: > 100 µM
- TGI [3]: > 100 µM
- TGI [4]: > 100 µM
- TGI [5]: > 100 µM
- TGI [6]: > 100 µM
- TGI [7]: > 100 µM
- TGI [8]: > 100 µM
- TGI [9]: > 100 µM
- TGI [10]: > 100 µM
- TGI [11]: > 100 µM
- TGI [12]: > 100 µM
- TGI [13]: > 100 µM
- TGI [14]: > 100 µM
- TGI [15]: > 100 µM
- TGI [16]: > 100 µM
- TGI [17]: > 100 µM
- TGI [18]: > 100 µM
- TGI [19]: > 100 µM
- TGI [20]: > 100 µM
- TGI [21]: > 100 µM
- TGI [22]: > 100 µM
- TGI [23]: > 100 µM
- TGI [24]: > 100 µM
- TGI [25]: > 100 µM
- TGI [26]: > 100 µM
- TGI [27]: > 100 µM
- TGI [28]: > 100 µM
- TGI [29]: > 100 µM
- TGI [30]: > 100 µM
- TGI [31]: > 100 µM
- TGI [32]: > 100 µM
- TGI [33]: > 100 µM
- TGI [34]: > 100 µM
- TGI [35]: > 100 µM
- TGI [36]: > 100 µM
- TGI [37]: > 100 µM
- TGI [38]: > 100 µM
- TGI [39]: > 100 µM
- TGI [40]: > 100 µM
- TGI [41]: > 100 µM
- TGI [42]: > 100 µM
- TGI [43]: > 100 µM
- TGI [44]: > 100 µM
- TGI [45]: > 100 µM
- TGI [46]: > 100 µM
- TGI [47]: > 100 µM
- TGI [48]: > 100 µM
- TGI [49]: > 100 µM
- TGI [50]: > 100 µM
- TGI [51]: > 100 µM
- TGI [52]: > 100 µM
- TGI [53]: > 100 µM
- TGI [54]: > 100 µM

SMILES: COc1ccc(NC(=O)C2=C(SC)C(C#N)C(=O)N=C2N)cc1 (stereo not given)
- TGI [1]: > 100 µM
- TGI [2]: > 100 µM
- TGI [3]: > 100 µM
- TGI [4]: > 100 µM
- TGI [5]: > 100 µM
- TGI [6]: > 100 µM
- TGI [7]: > 100 µM
- TGI [8]: > 100 µM
- TGI [9]: > 100 µM
- TGI [10]: > 100 µM
- TGI [55]: > 100 µM
- TGI [11]: > 100 µM
- TGI [12]: > 100 µM
- TGI [13]: > 100 µM
- TGI [56]: > 100 µM
- TGI [14]: 69.8 µM
- TGI [15]: > 100 µM
- TGI [16]: > 100 µM
- TGI [17]: > 100 µM
- TGI [57]: > 100 µM
- TGI [18]: 8.57 µM
- TGI [19]: > 100 µM
- TGI [20]: > 100 µM
- TGI [58]: 76.8 µM
- TGI [21]: > 100 µM
- TGI [22]: > 100 µM
- TGI [23]: > 100 µM
- TGI [24]: > 100 µM
- TGI [25]: > 100 µM
- TGI [26]: > 100 µM
- TGI [27]: > 100 µM
- TGI [28]: > 100 µM
- TGI [29]: 32.1 µM
- TGI [31]: > 100 µM
- TGI [32]: > 100 µM
- TGI [33]: > 100 µM
- TGI [35]: > 100 µM
- TGI [36]: > 100 µM
- TGI [37]: > 100 µM
- TGI [38]: > 100 µM
- TGI [39]: > 100 µM
- TGI [40]: > 100 µM
- TGI [41]: > 100 µM
- TGI [59]: > 100 µM
- TGI [42]: > 100 µM
- TGI [43]: > 100 µM
- TGI [44]: > 100 µM
- TGI [45]: > 100 µM
- TGI [47]: > 100 µM
- TGI [48]: > 100 µM
- TGI [49]: > 100 µM
- TGI [50]: > 100 µM
- TGI [51]: > 100 µM
- TGI [52]: > 100 µM
- TGI [53]: > 100 µM
- TGI [54]: > 100 µM
